In US11034692B1 (Genentech, Inc., priority 2017, dated 2021):

Target: HPK1
Test: HPK1 Lantha Binding Assay ("Lanth")
Conditions: Table B1-1, read-out: HPK1 Ki (μM) (Lanth)
Protocol: HPK1 Lantha Binding Assay (“Lanth”)
The compounds to be tested were diluted by preparing 12.5 uL/well of 5 mM compound (100×) in columns 2 and 13 and 10 ul/well of DMSO in columns 3-12, 14-23, and wells A1-H1 and I24-P24 of the compound plate using a Bravo liquid handling platform. For the reference compound, the top concentration was 1 mM. To the plate was added 10 ul 2 mM staurosporine in wells J1-P1 and A24-H24. A 11 point 5-fold compound serial dilution was performed using the Bravo liquid handling platform. From the plate were transferred 2.5 ul of the solutions from column 2 and column 13 to the 10 ul of DMSO in columns 3 and 14 & so on. The compound plate was centrifuged at 2500 rpm for 1 min. From the compound plate was transferred 80 nl of the compounds into an assay plate using the Echo liquid handler system. One compound plate makes two assay plates. Each assay plate is sealed and stored in an N2 cabinet.
The following assay concentrations and times were used: 2 nM HPK1, 2 nM Eu-Anti-GST Ab, and 15 nM Tracer222, with 60 min incubation time.
III. HPK Lantha Binding Assay:
For the binding assay, 4 ul 2×HPK1 and Eu-anti-GST antibody were added to each well of the assay plate using a Multidrop reagent dispenser. The solutions were incubated in a 23 C incubator for 1 h. To each well of the assay plate was added 4 ul 2× Tracer-222 using a Multidrop reagent dispenser. The solutions were again incubated in a 23 C incubator for 1 h. The results of the assay were read using an Envision plate reader with the following parameters: TR_FRET, 340ex/615 and 665em; 100 usec Delay; and 200 usec integration.
Compound Ki was analyzed using Morrison ki fit model in XL-fit • a. fit=(1−((((E+x)+(Ki*(1+(S/Kd))))−(((((E+x)+(Ki*(1+(S/Kd))))[…])−((4*E)*x))^0.5))/(2*E))) • res=(y-fit) • b. Parameters: • E=enzyme concentration • S=Tracer222 concentration, Kd=Tracer222 Kd • All measurements reported using the same units (uM)
Exemplary compounds of Formula I or Ia were tested in the binding assays. The Ki data in Table B1-1 are based on the “Lanth” assay.

Compound	Ki [µM]
Cc1cc2c(cc1-c1cc3cc(NC(=O)[C@H]4C[C@@H]4C#N)ncc3c(N)n1)C(O)C(=O)N2 (relative stereo) [Compound 160, trans-N-[8-amino-6-(3-hydroxy-6-methyl-2-oxo-indolin-5-yl)-2,7-naphthyridin-3-yl]-2-cyano-cyclopropanecarboxamide]	0.0012
CCc1c(-c2cnccc2C)nc(N)c2cnc(NC(=O)[C@@H]3C[C@H]3CC#N)cc12 (stereo in doubt) [Compound 271, (1R,2S)—N-[8-amino-5-ethyl-6-(4-methylpyridin-3-yl)-2,7-naphthyridin-3-yl]-2-(cyanomethyl)cyclopropane-1-carboxamide]	0.000768
Cn1cc([C@H]2C[C@@H]2C(=O)Nc2cc3cc(-c4ccccc4Cl)nc(N)c3cn2)cn1 (stereo in doubt) [Compound 304, (1S,2S)—N-[8-amino-6-(2-chlorophenyl)-2,7-naphthyridin-3-yl]-2-(1-methyl-1H-pyrazol-4-yl)cyclopropane-1-carboxamide]	0.00302
Cn1cc([C@H]2C[C@@H]2C(=O)Nc2cc3cc(-c4c(F)cccc4F)nc(N)c3cn2)cn1 (stereo in doubt) [Compound 306, (1S,2S)—N-[8-amino-6-(2,6-difluorophenyl)-2,7-naphthyridin-3-yl]-2-(1-methyl-1H-pyrazol-4-yl)cyclopropane-1-carboxamide]	0.00325
Cn1cc([C@@H]2C[C@H]2C(=O)Nc2cc3cc(-c4c(F)cccc4F)nc(N)c3cn2)cn1 (stereo in doubt) [Compound 307, (1R,2R)—N-[8-amino-6-(2,6-difluorophenyl)-2,7-naphthyridin-3-yl]-2-(1-methyl-1H-pyrazol-4-yl)cyclopropane-1-carboxamide]	0.000112
Cc1ccncc1-c1cc2cc(NC(=O)[C@@H]3C[C@@H]3F)ncc2c(N)n1 [Compound 6, (1S,2S)—N-(8-amino-6-(4-methylpyridin-3-yl)-2,7-naphthyridin-3-yl)-2-fluorocyclopropanecarboxamide]	0.000793
Cn1cc(-c2cc3cc(NC(=O)[C@@H]4C[C@@H]4F)ncc3c(N)n2)cn1 [Compound 7, (1S,2S)—N-(8-amino-6-(1-methyl-1H-pyrazol-4-yl)-2,7-naphthyridin-3-yl)-2-fluorocyclopropanecarboxamide]	0.00289
CNC(=O)Nc1cc2cc(-c3cnn(C)c3)nc(N)c2cn1 [Compound 9, 1-(8-amino-6-(1-methyl-1H-pyrazol-4-yl)-2,7-naphthyridin-3-yl)-3-methylurea]	0.00716
COc1ccncc1-c1cc2cc(NC(=O)[C@@H]3C[C@@H]3F)ncc2c(N)n1 [Compound 10, (1S,2S)—N-(8-amino-6-(4-methoxypyridin-3-yl)-2,7-naphthyridin-3-yl)-2-fluorocyclopropanecarboxamide]	0.00173
Cc1ccncc1-c1cc2cc(NC(=O)C3CC3(F)F)ncc2c(N)n1 (stereo not shown) [Compound 11, N-(8-amino-6-(4-methylpyridin-3-yl)-2,7-naphthyridin-3-yl)-2,2-difluorocyclopropanecarboxamide]	0.00365
Cc1ncncc1-c1cc2cc(NC(=O)[C@@H]3C[C@@H]3F)ncc2c(N)n1 [Compound 12, (1S,2S)—N-(8-amino-6-(4-methylpyrimidin-5-yl)-2,7-naphthyridin-3-yl)-2-fluorocyclopropanecarboxamide]	0.0493
CCc1ncncc1-c1cc2cc(NC(=O)[C@@H]3C[C@@H]3F)ncc2c(N)n1 [Compound 13, (1S,2S)—N-(8-amino-6-(4-ethylpyrimidin-5-yl)-2,7-naphthyridin-3-yl)-2-fluorocyclopropanecarboxamide]	0.0156

Same assay, conditions: Table B1-2, read-out: HPK1 Ki, L = Lanth

Compound	Ki [µM]
Cc1cc(C2=N[C@@H](C(C)C)CO2)ncc1-c1cc2cc(NC(=O)[C@H]3C[C@@H]3c3cnn(C)c3)ncc2c(N)n1 (stereo in doubt) [Compound 384, trans-N-(8-amino-6-(6-((S)-4-isopropyl-4,5-dihydrooxazol-2-yl)-4-methylpyridin-3-yl)-2,7-naphthyridin-3-yl)-2-(1-methyl-1H-pyrazol-4-yl)cyclopropane-1-carboxamide]	0.0018
